In ChEMBL document CHEMBL4828724 (Eur J Med Chem, 2021):
Blank lines part the entries; values can stand above or below the compound they belong to.

Experiments:
[1] = biological target: T1, Synaptic vesicular amine transporter (Rattus norvegicus, UniProt Q01827); test: Inhibition of [3H]DTBZ binding to VMAT2 in rat brain incubated for 30 mins by liquid scintillation spectrometry analysis; assay type: tissue-based
[2] = Metabolic stability in monkey liver microsomes assessed as parent compound remaining at 1 uM in the presence of NADPH measured after 60 mins by LC-MS/MS analysis; assay type: ADME, Macaca mulatta, Microsome; conditions: rhesus monkey; for remaining at 1 h, 1 µM: liver microsomes, read-out: Stability
[3] = Metabolic stability in mouse liver microsomes assessed as parent compound remaining at 1 uM in the presence of NADPH measured after 60 mins by LC-MS/MS analysis; assay type: ADME, Microsome; conditions: liver microsomes, read-out: Stability
[4] = Metabolic stability in human liver microsomes assessed as parent compound remaining at 1 uM in the presence of NADPH measured after 60 mins by LC-MS/MS analysis; assay type: ADME, Microsome; conditions: read-out: Stability
[5] = Metabolic stability in monkey liver microsomes assessed as intrinsic clearance at 1 uM in the presence of NADPH measured for 60 mins by LC-MS/MS analysis; assay type: ADME, Macaca mulatta, Microsome; conditions: rhesus monkey, read-out: CLH
[6] = Metabolic stability in mouse liver microsomes assessed as intrinsic clearance at 1 uM in the presence of NADPH measured for 60 mins by LC-MS/MS analysis; assay type: ADME, Microsome; conditions: read-out: CLH
[7] = Metabolic stability in human liver microsomes assessed as intrinsic clearance at 1 uM in the presence of NADPH measured for 60 mins by LC-MS/MS analysis; assay type: ADME, Microsome; conditions: read-out: CLH
[8] = biological target: Synaptic vesicular amine transporter (Rattus norvegicus) (UniProt Q01827); test: Inhibition of [3H]DA uptake at VMAT2 in rat striatal synaptosome at 1 uM incubated for 10 mins followed by [3H]DA addition and measured after 20 mins by TopCount scintillation counting method relative to control; assay type: subcellular; conditions: Striatum, time 30.0 min
Chain of Synaptic vesicular amine transporter (Rattus norvegicus) (Q01827 whole entry): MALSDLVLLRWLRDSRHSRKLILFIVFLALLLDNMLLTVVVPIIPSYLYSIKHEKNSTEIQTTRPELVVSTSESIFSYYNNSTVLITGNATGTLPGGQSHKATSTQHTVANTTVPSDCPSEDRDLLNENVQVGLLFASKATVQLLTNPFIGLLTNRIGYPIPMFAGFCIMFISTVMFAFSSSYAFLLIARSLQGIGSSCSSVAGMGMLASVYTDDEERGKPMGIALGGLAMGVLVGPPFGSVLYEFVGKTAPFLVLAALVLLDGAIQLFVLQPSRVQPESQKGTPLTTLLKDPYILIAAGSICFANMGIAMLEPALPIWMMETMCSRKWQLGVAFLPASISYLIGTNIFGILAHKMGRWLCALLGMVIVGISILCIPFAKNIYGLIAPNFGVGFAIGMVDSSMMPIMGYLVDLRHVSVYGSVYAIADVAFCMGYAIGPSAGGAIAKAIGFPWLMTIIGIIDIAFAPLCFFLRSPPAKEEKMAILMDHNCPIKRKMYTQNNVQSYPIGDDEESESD

[9] = biological target: Synaptic vesicular amine transporter (Rattus norvegicus) (UniProt Q01827); test: Inhibition of [3H]DA uptake at VMAT2 in rat striatal synaptosome at 0.1 uM incubated for 10 mins followed by [3H]DA addition and measured after 20 mins by TopCount scintillation counting method relative to control; assay type: subcellular; conditions: Striatum, time 30.0 min
[10] = biological target: T1, Synaptic vesicular amine transporter; test: Inhibition of [3H]DA uptake at VMAT2 in rat striatal synaptosome incubated for 10 mins followed by [3H]DA addition and measured after 20 mins by TopCount scintillation counting method; assay type: subcellular, Striatum
[11] = Tmax in Sprague-Dawley rat at 10 umol/kg, ig administered as single dose measured for 12 hrs by LC-MS/MS analysis; assay type: ADME; conditions: in vivo, po, dose 10 µmol/kg
[12] = Cmax in Sprague-Dawley rat at 10 umol/kg, ig administered as single dose measured for 12 hrs by LC-MS/MS analysis; assay type: ADME; design: route […], time 12 hrs, dose 10 µmol/kg; conditions: in vivo, po
[13] = AUC (0 to infinity) in Sprague-Dawley rat at 10 umol/kg, ig administered as single dose by LC-MS/MS analysis; assay type: ADME; design: time infinity, route […], dose 10 µmol/kg; conditions: in vivo, po
[14] = Apparent volume of distribution during terminal phase in Sprague-Dawley rat at 10 umol/kg, ig administered as single dose measured after 12 hrs by LC-MS/MS analysis; assay type: ADME; conditions: in vivo, po, dose 10 µmol/kg, read-out: Vz/F
[15] = Clearance in Sprague-Dawley rat at 10 umol/kg, ig administered as single dose measured for 12 hrs by LC-MS/MS analysis; assay type: ADME; conditions: in vivo, po, dose 10 µmol/kg
[16] = Half life in Sprague-Dawley rat at 10 umol/kg, ig administered as single dose measured for 12 hrs by LC-MS/MS analysis; assay type: ADME; conditions: in vivo, po, dose 10 µmol/kg
[17] = test system: Rattus norvegicus; test: Reduction in spontaneous locomotor activity in Sprague-Dawley rat at 3 umol/kg, po measured for 3 hrs; assay type: functional
[18] = test system: Rattus norvegicus; test: Reduction in spontaneous locomotor activity in Sprague-Dawley rat at 15 umol/kg, po measured for 3 hrs; assay type: functional
[19] = Drug uptake in Sprague-Dawley rat brain at 5 umol/kg, ig measured after 2 hrs by LC-MS/MS analysis; assay type: ADME, tissue-based; conditions: in vivo, po, dose 5 µmol/kg
[20] = Ratio of drug level in Sprague-Dawley rat brain to blood at 5 umol/kg, ig measured after 6 hrs by LC-MS/MS analysis; assay type: ADME, tissue-based; conditions: po, dose 5 µmol/kg
[21] = biological target: Voltage-gated inwardly rectifying potassium channel KCNH2 (Homo sapiens, UniProt Q12809); test: Inhibition of human ERG
Chain of Voltage-gated inwardly rectifying potassium channel KCNH2 (Q12809 whole entry): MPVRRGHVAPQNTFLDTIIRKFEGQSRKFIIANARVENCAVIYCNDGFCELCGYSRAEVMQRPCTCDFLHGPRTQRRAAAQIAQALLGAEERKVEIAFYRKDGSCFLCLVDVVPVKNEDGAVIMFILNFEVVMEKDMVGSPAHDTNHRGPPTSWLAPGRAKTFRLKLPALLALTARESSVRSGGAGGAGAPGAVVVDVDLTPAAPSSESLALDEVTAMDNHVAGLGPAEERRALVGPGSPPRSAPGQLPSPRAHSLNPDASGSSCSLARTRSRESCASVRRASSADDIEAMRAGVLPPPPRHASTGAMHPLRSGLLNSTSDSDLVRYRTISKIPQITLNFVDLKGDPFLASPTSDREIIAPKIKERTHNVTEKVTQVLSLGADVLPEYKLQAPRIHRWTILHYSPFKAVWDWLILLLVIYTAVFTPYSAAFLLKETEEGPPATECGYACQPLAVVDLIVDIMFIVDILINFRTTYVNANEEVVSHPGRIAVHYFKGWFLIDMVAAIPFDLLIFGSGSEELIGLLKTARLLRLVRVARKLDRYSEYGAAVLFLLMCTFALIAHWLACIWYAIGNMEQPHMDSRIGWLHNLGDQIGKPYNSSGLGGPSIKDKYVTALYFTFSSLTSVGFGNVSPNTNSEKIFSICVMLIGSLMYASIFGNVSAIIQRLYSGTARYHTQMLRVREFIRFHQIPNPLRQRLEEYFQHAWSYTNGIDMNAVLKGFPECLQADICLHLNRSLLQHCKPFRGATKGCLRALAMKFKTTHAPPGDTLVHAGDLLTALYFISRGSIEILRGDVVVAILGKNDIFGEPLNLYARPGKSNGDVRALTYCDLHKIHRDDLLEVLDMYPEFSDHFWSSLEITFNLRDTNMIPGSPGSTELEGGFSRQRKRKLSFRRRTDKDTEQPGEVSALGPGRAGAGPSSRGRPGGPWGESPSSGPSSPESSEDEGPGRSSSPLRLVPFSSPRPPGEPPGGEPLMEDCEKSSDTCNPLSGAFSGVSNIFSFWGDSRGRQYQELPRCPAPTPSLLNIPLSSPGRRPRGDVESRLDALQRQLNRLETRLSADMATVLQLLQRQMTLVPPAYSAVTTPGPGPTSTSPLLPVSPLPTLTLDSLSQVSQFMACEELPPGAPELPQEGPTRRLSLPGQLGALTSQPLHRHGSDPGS

[22] = biological target: Cytochrome P450 3A4 (Homo sapiens, UniProt P08684); test: Inhibition of CYP3A4 (unknown origin); assay type: ADME
Chain of Cytochrome P450 3A4 (P08684 whole entry): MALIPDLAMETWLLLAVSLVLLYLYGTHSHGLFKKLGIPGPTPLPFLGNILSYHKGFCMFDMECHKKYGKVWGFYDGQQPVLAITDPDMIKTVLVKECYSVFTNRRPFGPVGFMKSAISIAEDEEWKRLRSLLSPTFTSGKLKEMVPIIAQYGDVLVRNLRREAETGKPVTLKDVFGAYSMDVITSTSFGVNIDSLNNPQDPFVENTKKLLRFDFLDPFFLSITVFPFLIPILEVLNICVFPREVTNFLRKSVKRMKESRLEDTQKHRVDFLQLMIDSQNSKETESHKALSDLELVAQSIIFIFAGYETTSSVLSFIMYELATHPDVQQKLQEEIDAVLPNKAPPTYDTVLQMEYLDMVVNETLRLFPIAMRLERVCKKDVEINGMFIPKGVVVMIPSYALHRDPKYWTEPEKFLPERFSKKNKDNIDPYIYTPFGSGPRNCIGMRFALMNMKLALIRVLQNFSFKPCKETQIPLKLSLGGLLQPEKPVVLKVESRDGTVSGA

[23] = biological target: Cytochrome P450 2C9 (Homo sapiens, UniProt P11712); test: Inhibition of CYP2C9 (unknown origin); assay type: ADME
Chain of Cytochrome P450 2C9 (P11712 whole entry): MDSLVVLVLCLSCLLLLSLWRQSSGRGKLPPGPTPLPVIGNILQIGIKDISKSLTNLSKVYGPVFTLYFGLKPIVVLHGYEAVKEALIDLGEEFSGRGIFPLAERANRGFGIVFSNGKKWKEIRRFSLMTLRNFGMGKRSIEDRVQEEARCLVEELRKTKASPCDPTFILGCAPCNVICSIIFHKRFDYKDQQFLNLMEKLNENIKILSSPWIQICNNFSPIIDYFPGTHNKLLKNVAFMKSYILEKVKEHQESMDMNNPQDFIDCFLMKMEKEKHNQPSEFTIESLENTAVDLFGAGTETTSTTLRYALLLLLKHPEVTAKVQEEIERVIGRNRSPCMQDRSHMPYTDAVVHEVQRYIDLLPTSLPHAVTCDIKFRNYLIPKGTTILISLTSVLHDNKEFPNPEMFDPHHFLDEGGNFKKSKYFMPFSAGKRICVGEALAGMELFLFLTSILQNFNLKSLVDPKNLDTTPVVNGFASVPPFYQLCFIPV

[24] = biological target: Cytochrome P450 2D6 (Homo sapiens, UniProt P10635); test: Inhibition of CYP2D6 (unknown origin); assay type: ADME
Chain of Cytochrome P450 2D6 (P10635 whole entry): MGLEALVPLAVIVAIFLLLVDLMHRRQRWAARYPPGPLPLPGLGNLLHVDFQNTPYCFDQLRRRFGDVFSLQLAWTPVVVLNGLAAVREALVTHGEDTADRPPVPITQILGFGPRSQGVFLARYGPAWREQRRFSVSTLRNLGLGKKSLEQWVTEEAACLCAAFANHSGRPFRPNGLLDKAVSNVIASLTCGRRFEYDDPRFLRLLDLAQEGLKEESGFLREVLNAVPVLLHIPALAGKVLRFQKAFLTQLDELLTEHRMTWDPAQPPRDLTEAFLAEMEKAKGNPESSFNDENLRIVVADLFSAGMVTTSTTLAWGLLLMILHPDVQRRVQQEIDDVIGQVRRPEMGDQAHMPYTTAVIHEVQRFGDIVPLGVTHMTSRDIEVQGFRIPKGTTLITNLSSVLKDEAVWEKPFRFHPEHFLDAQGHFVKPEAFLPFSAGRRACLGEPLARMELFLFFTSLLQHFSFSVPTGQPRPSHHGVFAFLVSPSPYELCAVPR

[25] = biological target: Cytochrome P450 2C19 (Homo sapiens, UniProt P33261); test: Inhibition of CYP2C19 (unknown origin); assay type: ADME
Chain of Cytochrome P450 2C19 (P33261 whole entry): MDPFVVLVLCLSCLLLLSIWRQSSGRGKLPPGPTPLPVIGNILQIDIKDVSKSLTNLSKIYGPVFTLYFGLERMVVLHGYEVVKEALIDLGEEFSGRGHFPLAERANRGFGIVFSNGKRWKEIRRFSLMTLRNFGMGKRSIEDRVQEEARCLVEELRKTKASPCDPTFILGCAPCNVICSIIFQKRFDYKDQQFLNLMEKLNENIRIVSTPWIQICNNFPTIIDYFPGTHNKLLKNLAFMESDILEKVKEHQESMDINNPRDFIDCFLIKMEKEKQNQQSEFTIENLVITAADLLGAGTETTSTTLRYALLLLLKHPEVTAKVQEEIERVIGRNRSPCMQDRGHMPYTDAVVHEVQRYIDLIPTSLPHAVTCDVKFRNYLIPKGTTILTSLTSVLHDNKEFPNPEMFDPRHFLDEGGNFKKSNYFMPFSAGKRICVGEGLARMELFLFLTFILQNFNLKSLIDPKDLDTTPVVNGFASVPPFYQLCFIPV

[26] = biological target: T2, Cytochrome P450 2B6 (Homo sapiens, UniProt P20813); test: Inhibition of CYP2B6 (unknown origin); assay type: ADME
T2 sequence (P20813 whole entry): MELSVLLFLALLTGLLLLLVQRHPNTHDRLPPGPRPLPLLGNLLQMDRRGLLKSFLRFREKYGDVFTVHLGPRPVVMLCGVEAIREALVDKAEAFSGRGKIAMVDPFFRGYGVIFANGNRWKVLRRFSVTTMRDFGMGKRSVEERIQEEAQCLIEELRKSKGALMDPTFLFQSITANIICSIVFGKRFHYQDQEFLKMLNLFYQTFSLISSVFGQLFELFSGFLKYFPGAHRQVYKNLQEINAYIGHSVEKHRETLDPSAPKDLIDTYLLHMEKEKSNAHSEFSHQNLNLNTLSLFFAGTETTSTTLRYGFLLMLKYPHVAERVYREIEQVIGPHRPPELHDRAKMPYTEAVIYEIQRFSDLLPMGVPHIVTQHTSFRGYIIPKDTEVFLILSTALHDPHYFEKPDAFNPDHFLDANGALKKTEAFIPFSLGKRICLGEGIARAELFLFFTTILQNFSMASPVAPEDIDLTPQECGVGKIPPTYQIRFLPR

[27] = Metabolic stability in human liver microsomes assessed as half life at 1 uM in the presence of NADPH measured for 60 mins by LC-MS/MS analysis; assay type: ADME, Microsome
[28] = Metabolic stability in mouse liver microsomes assessed as half life at 1 uM in the presence of NADPH measured for 60 mins by LC-MS/MS analysis; assay type: ADME, Microsome; conditions: liver microsomes
[29] = Metabolic stability in monkey liver microsomes assessed as half life at 1 uM in the presence of NADPH measured for 60 mins by LC-MS/MS analysis; assay type: ADME, Macaca mulatta, Microsome; conditions: rhesus monkey

T1 sequence (Q01827 whole entry): as the sequence (Q01827 whole entry) above

Structure (SMILES): CCOc1cc2c(cc1OCC1CC1)CCN1CC(CC(C)C)C(O)CC21 (centres undefined)
IC50 [1]: 21.4 nM

Structure (SMILES): COCCCOc1cc2c(cc1OC)C1CC(O)C(CC(C)C)CN1CC2 (centres undefined)
inhibition [8]: 92.1%
inhibition [9]: 84.9%
IC50 [10]: 64.9 nM

Structure (SMILES): COc1cc2c(cc1OCC(F)(F)F)CCN1CC(CC(C)C)C(O)CC21 (centres undefined)
remaining at 1 h, 1 µM [2]: 48.1%
remaining at 1 h, 1 µM [3]: 14.2%
remaining at 1 h, 1 µM [4]: 77.4%
CLint scaled at 1 µM [5]: 31.9 mL/min/kg
CLint scaled at 1 µM [6]: 238 mL/min/kg
CLint scaled at 1 µM [7]: 8.6 mL/min/kg
inhibition [8]: 99.9%
inhibition [9]: 99.9%
Tmax [11]: 45 min
Cmax [12]: 1400 nM
AUC(0-inf) [13]: 3.47 µM·h
Vd/F [14]: 10.8 L/kg
CL/F [15]: 53.3 mL/min/kg
half-life [16]: 137 min
inhibition in vivo at 3 µmol/kg [17]: 64.7%
inhibition in vivo at 15 µmol/kg [18]: 93.7%
Drug uptake [19]: 458.2 nmol/kg
Kp at 6 h [20]: 2.21
IC50 [21]: 6510 nM
IC50 [22]: > 100000 nM
IC50 [23]: > 100000 nM
IC50 [24]: > 100000 nM
IC50 [25]: > 100000 nM
IC50 [26]: > 100000 nM

Structure (SMILES): COc1cc2c(cc1OC)[C@H]1C[C@@H](O)[C@H](CC(C)C)CN1CC2 [DIHYDROTETRABENAZINE]
remaining at 1 h, 1 µM [2]: 29.9%
remaining at 1 h, 1 µM [3]: 4.8%
remaining at 1 h, 1 µM [4]: 75.6%
CLint scaled at 1 µM [5]: 53.7 mL/min/kg
CLint scaled at 1 µM [6]: 1150 mL/min/kg
CLint scaled at 1 µM [7]: 20.9 mL/min/kg
half-life at 1 µM [27]: 120 min
half-life at 1 µM [28]: 4.8 min
half-life at 1 µM [29]: 34.8 min
Tmax [11]: 22.8 min
Cmax [12]: 1210 nM
AUC(0-inf) [13]: 2.3 µM·h
Vd/F [14]: 10.5 L/kg
CL/F [15]: 74.5 mL/min/kg
half-life [16]: 96.6 min
inhibition in vivo at 3 µmol/kg [17]: 48.4%
inhibition in vivo at 15 µmol/kg [18]: 91.4%
Drug uptake [19]: 213.5 nmol/kg
IC50 [22]: > 100000 nM
IC50 [23]: > 100000 nM
IC50 [24]: > 100000 nM
IC50 [25]: > 100000 nM
IC50 [26]: > 100000 nM

Structure (SMILES): COc1cc2c(cc1OC)C1CC(C)(O)C(CC(C)C)CN1CC2 (centres undefined)
IC50 [1]: > 500 nM
inhibition [8]: 96.1%
inhibition [9]: 53.1%

Structure (SMILES): CCOc1cc2c(cc1OCCCOC)CCN1CC(CC(C)C)C(O)CC21 (centres undefined)
IC50 [1]: 200 nM

Other lines, results leading:

IC50 [1]: > 500 nM
Structure (SMILES): CCOc1cc2c(cc1OC)CCN1CC(CC(C)C)C(O)CC21 (centres undefined)

Stability ([2]; microsomes, 1 h, 1 µM): 23.7%
remaining at 1 h, 1 µM [3]: 9.4%
remaining at 1 h, 1 µM [4]: 66.8%
CLint scaled at 1 µM [5]: 131 mL/min/kg
CLint scaled at 1 µM [6]: 283 mL/min/kg
CLint scaled at 1 µM [7]: 14.4 mL/min/kg
inhibition [8]: 99.9%
inhibition [9]: 99.9%
IC50 [10]: 5.72 nM
Structure (SMILES): CCOc1cc2c(cc1OC)C1CC(O)C(CC(C)C)CN1CC2 (centres undefined)

IC50 [1]: > 500 nM
Structure (SMILES): CCCOc1cc2c(cc1OC(C)C)C1CC(O)C(CC(C)C)CN1CC2 (centres undefined)

IC50 [1]: > 500 nM
Structure (SMILES): CCOc1cc2c(cc1OCCCF)C1CC(O)C(CC(C)C)CN1CC2 (centres undefined)

IC50 [1]: 56.6 nM
Structure (SMILES): CCOc1cc2c(cc1OCCCF)CCN1CC(CC(C)C)C(O)CC21 (centres undefined)

IC50 [1]: > 500 nM
Structure (SMILES): CCCOc1cc2c(cc1OC(C)C)CCN1CC(CC(C)C)C(O)CC21 (centres undefined)
